Reference: patent publication US20250066344A1 (BRISTOL-MYERS SQUIBB COMPANY, priority 2021, published 2025)

Target: T1, human RXFP1 (Homo sapiens, UniProt Q9HBX9)
T1 construct: expressed in transfected cells
T1 sequence (Q9HBX9 1-757): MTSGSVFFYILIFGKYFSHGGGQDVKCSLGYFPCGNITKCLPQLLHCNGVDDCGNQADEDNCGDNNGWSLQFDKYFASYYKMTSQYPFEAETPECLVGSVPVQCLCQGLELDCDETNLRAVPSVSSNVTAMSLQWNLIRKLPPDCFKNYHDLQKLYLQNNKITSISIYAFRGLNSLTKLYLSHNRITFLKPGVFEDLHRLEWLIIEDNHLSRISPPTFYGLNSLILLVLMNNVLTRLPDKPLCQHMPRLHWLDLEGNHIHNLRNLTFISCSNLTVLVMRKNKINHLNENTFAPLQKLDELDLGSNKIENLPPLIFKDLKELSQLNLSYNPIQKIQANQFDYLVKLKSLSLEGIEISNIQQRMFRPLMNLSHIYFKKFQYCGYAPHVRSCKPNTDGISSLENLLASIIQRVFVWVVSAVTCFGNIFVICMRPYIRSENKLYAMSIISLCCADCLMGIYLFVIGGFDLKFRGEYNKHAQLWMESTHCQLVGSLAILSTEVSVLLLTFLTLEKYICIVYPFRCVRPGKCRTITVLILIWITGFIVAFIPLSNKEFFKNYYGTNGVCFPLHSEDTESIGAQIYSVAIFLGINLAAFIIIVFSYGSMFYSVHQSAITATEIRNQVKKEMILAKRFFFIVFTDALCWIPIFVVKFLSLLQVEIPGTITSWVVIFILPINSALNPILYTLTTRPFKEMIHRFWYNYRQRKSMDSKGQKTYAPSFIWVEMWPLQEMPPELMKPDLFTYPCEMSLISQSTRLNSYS
Test: RXFP1 cyclic adenosine monophosphate (cAMP) assay, hRXFP1 HEK293
Assay type: cell-based
Settings: HEK293 cells stably expressing human RXFP1; 30 min at room temperature; HTRF cAMP
In short: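 HEK293 cells stably expressing human RXFP1 were exposed to compounds (0.010 nM–50 μM, 2% DMSO) for 30 min at room temperature in HBSS/HEPES buffer with 0.5 mM IBMX. Intracellular cAMP was measured by HTRF against a cAMP standard curve; EC50 from 4-parameter logistic fit.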

Structure (SMILES)	EC50 [nM]
COc1ccc(C2=NOC3CNCC23)cc1C(=O)Nc1cc2c(cc1C(=O)Nc1ccc(F)c(C(F)(F)F)c1)OC(F)(F)O2 (single isomer, unassigned) [Example 43, 2,2-difluoro-N-(4-fluoro-3-(trifluoromethyl)phenyl)-6-(2-methoxy-5-(3a,5,6,6a-tetrahydro-4H-pyrrolo[3,4-d]isoxazol-3-yl)benzamido)benzo[d][1,3]dioxole-5-carboxamide]	13
COc1ccc(C#CCO)cc1C(=O)Nc1cc2c(cc1C(=O)Nc1ccc(F)c(C(F)(F)F)c1)OC(F)(F)O2 [Example 59, 2,2-difluoro-N-(4-fluoro-3-(trifluoromethyl)phenyl)-6-(5-(3-hydroxyprop-1-yn-1-yl)-2-methoxybenzamido) benzo[d][1,3]dioxole-5-carboxamide]	41
O=C(Nc1cc2c(cc1C(=O)Nc1ccc(F)c(C(F)(F)F)c1)OC(F)(F)O2)c1csc(C2=NOC3COCC23)n1 (single isomer, unassigned) [Example 94, N-(2,2-difluoro-6-((4-fluoro-3-(trifluoromethyl)phenyl)carbamoyl)benzo[d][1,3]dioxol-5-yl)-2-(3a,4,6,6a-tetrahydrofuro[3,4-d]isoxazol-3-yl)thiazole-4-carboxamide]	1400
COc1ccc(N2CC(CN)CC2=O)cc1C(=O)Nc1cc2nc(C)sc2cc1C(=O)Nc1ccc(F)c(C(F)(F)F)c1 (centres unmarked) [Example 21, 5-(5-(4-(ami-nomethyl)-2-oxopyrrolidin-1-yl)-2-meth-oxybenzami-do)-N-(4-fluoro-3-(tri-fluoromethyl)-phenyl)-2-methylbenzo [d]thiazole-6-carboxamide]	4100
COc1ccc(-c2nc(N3CCOCC3)no2)cc1C(=O)Nc1cc2c(cc1C(=O)Nc1ccc(F)c(C(F)(F)F)c1)OC(F)(F)O2 [Example 87, 2,2-difluoro-N-(4-fluoro-3-(trifluoromethyl)phenyl)-6-(2-methoxy-5-(3-morpholino-1,2,4-oxadiazol-5-yl)benzamido)benzo[d] [1,3]dioxole-5-carboxamide]	161
COc1ccc(C2=NOC3(COC(=O)C3)C2)cc1C(=O)Nc1cc2c(cc1C(=O)Nc1ccc(F)c(C(F)(F)F)c1)OC(F)(F)O2 (centres unmarked) [Example 78, 2,2-difluoro-N-(4-fluoro-3-(trifluoromethyl)phenyl)-6-(2-methoxy-5-(8-oxo-1,7-dioxa-2-azaspiro[4.4]non-2-en-3-yl)benzamido)benzo[d] [1,3]dioxole-5-carboxamide]	262
COc1ccc(C2=NOC3CC(N)CC23)cc1C(=O)Nc1cc2c(cc1C(=O)Nc1ccc(F)c(C(F)(F)F)c1)OC(F)(F)O2 (single isomer, unassigned) [Example 50, 6-(5-(5-amino-3a,5,6,6a-tetrahydro-4H-cyclopenta[d]isoxazol-3-yl)-2-methoxybenzamido)-2,2-difluoro-N-(4-fluoro-3-(trifluoromethyl)phenyl)benzo[d][1,3]dioxole-5-carboxamide]	98
COc1ccc(C2=NOC3CS(=O)(=O)CC23)cc1C(=O)Nc1cc2c(cc1C(=O)Nc1ccc(F)c(C(F)(F)F)c1)OC(F)(F)O2 (single isomer, unassigned) [Example 61, 6-(5-(5,5-dioxido-3a,4,6,6a-tetrahydrothieno[3,4-d]isoxazol-3-yl)-2-methoxybenzamido)-2,2-difluoro-N-(4-fluoro-3-(trifluoromethyl)phenyl) benzo[d][1,3]dioxole-5-carboxamide]	17
COc1ccc(C(=O)N2CC[C@@H](O)C2)cc1C(=O)Nc1cc2c(cc1C(=O)Nc1ccc(F)c(C(F)(F)F)c1)OC(F)(F)O2 [Example 40, (R)-2,2-difluoro-N-(4-fluoro-3-(trifluoromethyl)phenyl)-6-(5-(3-hydroxypyrrolidine-1-carbonyl)-2-methoxybenzamido) benzo[d][1,3]dioxole-5-carboxamide]	196
CC1(C)Cc2cc(C3=NOC4CC(CO)CC34)cc(C(=O)Nc3cc4c(cc3C(=O)Nc3ccc(F)c(C(F)(F)F)c3)OC(F)(F)O4)c2O1 (centres unmarked) [Example 100, 2,2-difluoro-N-(4-fluoro-3-(trifluoromethyl)phenyl)-6-(5-(5-(hydroxymethyl)-3a,5,6,6a-tetrahydro-4H-cyclopentafdlisoxazol-3-yl)-2,2-dimethyl-2,3-dihydrobenzofuran-7-carboxamido)benzo[d] [1,3]dioxole-5-carboxamide]	8.4
COc1ccc(C2CCCN(S(C)(=O)=O)C2)cc1C(=O)Nc1cc2c(cc1C(=O)Nc1ccc(F)c(C(F)(F)F)c1)OC(F)(F)O2 (single isomer, unassigned) [Example 49, 2,2-difluoro-N-(4-fluoro-3-(trifluoromethyl)phenyl)-6-(2-methoxy-5-(1-(methylsulfonyl)piperidin-3-yl)benzamido)benzo[d][1,3]dioxole-5-carboxamide]	154
COc1cc(F)c(C(=O)NCC2(S(C)(=O)=O)CC2)cc1C(=O)Nc1cc2c(cc1C(=O)Nc1ccc(F)c(C(F)(F)F)c1)OC(F)(F)O2 [Example 36, N1-(2,2-difluoro-6-((4-fluoro-3-(trifluoromethyl)phenyl)carbamoyl)benzo[d] [1,3]dioxol-5-yl)-4-fluoro-6-methoxy-N3-((1-(methylsulfonyl)cyclopropyl)methyl)iso-phthalamide]	14
COc1cc(F)c(C2=NOC3CC(CO)CC23)cc1C(=O)Nc1cc2c(cc1C(=O)Nc1ccc(F)c(C(F)(F)F)c1)OC(F)(F)O2 (centres unmarked) [Example 102, 2,2-difluoro-N-(4-fluoro-3-(trifluoromethyl)phenyl)-6-(4-fluoro-5-(5-(hydroxymethyl)-3a,5,6,6a-tetrahydro-4H-cyclopenta[d]isoxazol-3-yl)-2-methoxybenzamido) benzo[d][1,3]dioxole-5-carboxamide]	10.6
COCCOC1(C2CC(c3ccc(OC)c(C(=O)Nc4cc5nc(C)sc5cc4C(=O)Nc4ccc(F)c(C(F)(F)F)c4)c3)=NO2)CC1 (centres unmarked) [Example 12, N-(4-fluoro-3-(trifluorometh-yl)phenyl)-5-(2-methoxy-5-(5-(1-(2-meth-oxyethoxy)-cyclopropyl)-4,5-dihydro-isoxazol-3-yl)-benzamido)-2-methylbenzo [d]thiazole-6-carboxamide]	290
COc1ccc(C2=NOC3CC(O)CC23)cc1C(=O)Nc1cc2nc(C)sc2cc1C(=O)Nc1ccc(F)c(C(F)(F)F)c1 (single isomer, unassigned) [Example 23, N-(4-fluoro-3-(trifluorometh-yl)phenyl)-5-(5-(5-hydroxy-3a,5,6,6a-tetrahydro-4H-cyclopenta [d]isoxazol-3-yl)-2-methoxy-benzamido)-2-methylbenzo [d]thiazole-6-carboxamide]	750
COc1ccc(C2CCCN(CC(N)=O)CC2)cc1C(=O)Nc1cc2c(cc1C(=O)Nc1ccc(F)c(C(F)(F)F)c1)OC(F)(F)O2 (centres unmarked) [Example 96, 6-(5-(1-(2-amino-2-oxoethyl)azepan-4-yl)-2-methoxybenzamido)-2,2-difluoro-N-(4-fluoro-3-(trifluoromethyl)phenyl) benzo[d][1,3]dioxole-5-carboxamide]	339
COc1ccc(S(=O)(=O)N2CCOC[C@@H]2CO)cc1C(=O)Nc1cc2nc(C)sc2cc1C(=O)Nc1ccc(F)c(C(F)(F)F)c1 [Example 14, (S)-N-(4-fluoro-3-(tri-fluoromethyl)-phenyl)-5-(5-((3-(hydroxy-methyl)morph-olino)sulfon-yl)-2-methoxy-benzamido)-2-methylbenzo [d]thiazole-6-carboxamide]	1400
COCC1CC(c2ccc(OC)c(C(=O)Nc3cc4c(cc3C(=O)Nc3ccc(F)c(C(F)(F)F)c3)OC(F)(F)O4)c2)=NO1 (centres unmarked) [Example 83, 2,2-difluoro-N-(4-fluoro-3-(trifluoromethyl)phenyl)-6-(2-methoxy-5-(5-(methoxymethyl)-4,5-dihydroisoxazol-3-yl)benzamido)benzo[d] [1,3]dioxole-5-carboxamide]	399
COc1ccc(C2=NOC3CN(C(=O)CO)CC23)cc1C(=O)Nc1cc2c(cc1C(=O)Nc1ccc(F)c(C(F)(F)F)c1)OC(F)(F)O2 (centres unmarked) [Example 44, 2,2-difluoro-N-(4-fluoro-3-(trifluoromethyl)phenyl)-6-(5-(5-(2-hydroxyacetyl)-3a,5,6,6a-tetrahydro-4H-pyrrolo[3,4-d]isoxazol-3-yl)-2-methoxybenzamido)benzo[d][1,3]dioxole-5-carboxamide]	16
COc1ccc(C2=NOC(C(C)(C)O)C2)cc1C(=O)Nc1cc2c(cc1C(=O)Nc1ccc(F)c(C(F)(F)F)c1)OC(F)(F)O2 (single isomer, unassigned) [Example 77, 2,2-difluoro-N-(4-fluoro-3-(trifluoromethyl)phenyl)-6-(5-(5-(2-hydroxypropan-2-yl)-4,5-dihydroisoxazol-3-yl)-2-methoxybenzamido) benzo[d][1,3]dioxole-5-carboxamide]	487
